Test results: patent US9145376B2, “Quinazolinone inhibitors of dynein” (The Rockefeller University, priority 2011, dated 2015)

Experiments:
[1] = system: primary cilia of Shh-EGFP cells; assay: Quantitative assessment of ciliogenesis (Arl13b staining, cilia size); type: cell-based; details: 24 hours, read-out: Primary cilia size (percent of DMSO control at a 30 μM dose)
Experimental: Shh-EGFP cells [J. Hyman et al., Proc. Natl. Acad. Sci. U.S.A., (2009)], an NIH-3T3-based cell line containing a stably integrated Gli-responsive enhanced green fluorescent protein reporter, were maintained in DMEM containing 10% calf serum, 100 U/mL penicillin, and 0.1 mg/mL streptomycin. The cells were seeded into 24-well plates containing poly-D-lysine-coated 12-mm glass coverslips at a density of 30,000 cells/well and cultured for 36 hours. The cells were transferred into DMEM containing 0.5% calf serum, the antibiotics described above, and either individual compounds at a 30 μM concentration or 0.3% DMSO. After being cultured for another 24 hours, the cells were fixed in PBS containing 4% paraformaldehyde for 10 minutes at room temperature, washed 3×5 minutes with PBS, permeabilized with PBS containing 0.3% Triton X-100 for 5 minutes, and blocked overnight at 4° C. with PBS containing 5% normal goat serum, 0.1% Triton X-100, and 0.05% sodium azide. The coverslips were then incubated for 90 minutes at room temperature with blocking buffer containing rabbit polyclonal anti-Arl 13b antibody (1:3000 dilution), washed 4×5 minutes with PBS containing 0.1% Triton X-100, and incubated for 60 minutes with blocking buffer containing Alexa Fluor 488-conjugated goat polyclonal anti-rabbit IgG antibody (1:300 dilution; Invitrogen, A-11034). Following this secondary antibody incubation, nuclei were stained by incubating the cells 2×10 minutes with PBS containing 0.1% Triton X-100 and […] 4′,6-diamidino-2-phenylindole (DAPI) and washing them 2×5 minutes with PBS. The coverslips were subsequently mounted onto slides using Prolong Gold Antifade Reagent (Invitrogen) and imaged using an HC Plan Apochromat CS 20×/0.70 NA oil immersion objective on a Leica DMI6000B compound microscope equipped with a Photometric CoolSNAP HQ CCD camera and Metamorph software (Molecular Devices). Images of Arl13b staining in DMSO-treated cells were manually examined to establish a minimum threshold value for cilia staining intensity. ImageJ software was then used to define objects consisting of two or more adjacent pixels with a signal intensity equal to or greater than this threshold value, and the total object area within an individual image was used to estimate the total pixel area of primary cilia. Corresponding images of DAPI staining were processed in parallel using CellProfiler software to establish the number of nuclei per image. The average cilia size per cell within an individual image was then determined by dividing the total ciliary pixel area by the number of nuclei. Ten individual images, each containing approximately 150 cells. were used to quantify the average cilia size for each experimental condition.
Shh-EGFP cells, an NIH-3T3-based cell line containing a stably integrated Gli-responsive enhanced green fluorescent protein reporter, were maintained in DMEM containing 10% (v/v) calf serum, 100 U/mL penicillin, and 0.1 mg/mL streptomycin. The cells were seeded into 24-well plates containing poly-D-lysine-coated 12-mm glass coverslips at a density of 30,000 cells/well and cultured for 36 hours. The cells were transferred into DMEM containing 0.5% (v/v) calf serum, the antibiotics described above, and either individual dihydroquinazolinones at a 30 μM concentration or an equivalent amount of DMSO vehicle (0.3%, v/v). After being cultured for another 24 hours, the cells were fixed in PBS containing 4% (w/v) paraformaldehyde for 10 min at room temperature, washed 3×5 min with PBS, permeabilized with PBS containing 0.3% (v/v) Triton X-100 for 5 min, and blocked overnight at 4° C. with PBS containing 5% (v/v) normal goat serum, 0.1% (v/v) Triton X-100, and 0.05% (w/v) sodium azide. […]

[2] = system: ciliary Gli2 in Shh-EGFP cells; assay: Quantitative assessment of Hh ligand-dependent Gli2 trafficking; type: cell-based; details: 30 μM, 4 hours; for basal Gli2 concentrations in the primary cilium: without Shh-N; for Basal and Shh-N-induced levels of ciliary Gli2: with or without 10% Shh-N-conditioned medium
Experimental: Shh-EGFP cells were seeded into 24-well plates containing poly-D-lysine-coated 12-mm glass coverslips at a density of 65,000 cells/well and cultured for 24 hours in DMEM containing 10% calf serum, 100 U/mL penicillin, and 0.1 mg/mL streptomycin. The cells were then transferred into DMEM containing 0.5% calf serum and the antibiotics described above for 16 hours to promote primary cilia formation. The cells were next transferred into DMEM containing 0.5% calf serum, antibiotics, and either individual compounds at a 30 μM concentration or 0.3% DMSO. Each compound or vehicle treatment was conducted in the presence or absence of 10% Shh-N-conditioned medium, and the cells were cultured under these conditions for 4 hours. The cells were subsequently fixed in PBS containing 4% paraformaldehyde for 10 minutes at room temperature, washed 3×5 minutes in PBS containing 50 mM glycine, permeabilized in PBS containing 0.3% Triton X-100 […], and then blocked overnight at 4° C. in PBS containing 5% normal donkey serum, 0.1% Triton X-100, and 0.05% sodium azide. After blocking was complete, the coverslips were incubated in blocking buffer containing rabbit polyclonal anti-Arl13b antibody (1:3000 dilution), goat polyclonal anti-Gli2 antibody (1:50 dilution; R & D Systems, AF3635), and mouse monoclonal anti-γ-tubulin (1:200 dilution; Sigma-Aldrich, T5326) for 90 minutes at room temperature. The cells were then washed 4×5 minutes with PBS containing 0.1% Triton X-100 and incubated in blocking buffer containing DyLight 488-conjugated donkey polyclonal anti-goat IgG antibody (3 μg/mL; Jackson ImmunoResearch, 705-485-147), DyLight 594-conjugated donkey polyclonal […] IgG antibody (3 μg/mL; Jackson ImmunoResearch, 715-515-151), and DyLight 649-conjugated donkey polyclonal […] IgG antibody (3 μg/mL; Jackson ImmunoResearch, 711-495-152) for 60 minutes. Following, this secondary antibody incubation, nuclei were stained by incubating the cells 2×10 minutes with PBS containing 0.1% Triton X-100 and 0.5 μg/mL DAPI and washing them 2×5 minutes with PBS. The coverslips were subsequently mounted onto slides using Prolong Gold Antifade Reagent (Invitrogen) and imaged using a Plan Apochromat 63×/1.4 NA oil immersion objective on a Zeiss Axio1mager Z1 upright microscope equipped with an LSM700 laser scanning confocal head. Ciliary Gli2 levels were quantified by determining total pixel intensity within a 0.69 μm-diameter circle at the distal tip of the axoneme and subtracting background fluorescence in an adjacent region of equivalent size. At least 25 cilia were analyzed to determine the average ciliary Gli2 level for each experimental condition.

N#C/C(C(=O)c1ccc(Cl)cc1Cl)=C1\NC(=O)c2ccccc2N1 [Example 1, 3-(2,4-dichlorophenyl)-3-oxo-2-(4-oxo-3,4-dihydroquinazolin-2(1H)-ylidene)propanenitrile]
activity at 30 µM [1]: 27% | basal Gli2 concentrations in the primary cilium [2]: increased basal Gli2 concentrations in this signaling organelle to levels comparable to that induced by Shh-N

N#C/C(C(=O)c1ccc(Cl)cc1)=C1\NC(=O)c2ccccc2N1 [Example 2, 3-(4-chlorophenyl)-3-oxo-2-(4-oxo-3,4-dihydroquinazolin-2(1H)-ylidene)propanenitrile]
activity at 30 µM [1]: 74% | Basal and Shh-N-induced levels of ciliary Gli2 [2]: unchanged

N#C/C(C(=O)c1ccccc1)=C1\NC(=O)c2ccccc2N1 [Example 16, 3-oxo-2-(4-oxo-3,4-dihydroquinazolin-2(1H)-ylidene)-3-phenylpropanenitrile]
activity at 30 µM [1]: 95% | Basal and Shh-N-induced levels of ciliary Gli2 [2]: unchanged

N#C/C(C(=O)c1ccc(Cl)cc1Cl)=C1\NC(=O)c2ccc(Cl)cc2N1 [Example 31, 2-(7-chloro-4-oxo-3,4-dihydroquinazolin-2(1H)-ylidene)-3-(2,4-dichlorophenyl)-3-oxo-propanenitrile]
activity at 30 µM [1]: 7% | basal Gli2 concentrations in the primary cilium [2]: increased basal Gli2 concentrations in this signaling organelle to levels comparable to that induced by Shh-N
